Source: ChEMBL document CHEMBL1152113, “The prooligonucleotide approach. III: Synthesis and bioreversibility of a chimeric phosphorodithioate prooligonucleotide” (Bioorg Med Chem Lett, 1996)

What was measured:
[1] = Half life period was reported in a culture medium (RPMI 1640 + 10% FCS); assay type: ADME
[2] = Half life period was reported in total cell extract medium; assay type: ADME
[3] = Half life period was reported in gastric juice, stable; No degradation observed up to 30 days; assay type: ADME, tissue-based; conditions: simulated gi fluid, 720 h
[4] = Half life period was reported in porcine liver esterase medium; assay type: ADME, Sus scrofa; conditions: pig
[5] = Half life period was reported in gastric juice; assay type: ADME, tissue-based
[6] = Half life period was reported in gastric juice; stable No degradation observed up to 30 days; assay type: ADME, tissue-based; conditions: simulated gi fluid, 720 h

| Structure (SMILES) | half-life [1] [h] | half-life [2] [min] | T1/2 [3] | half-life [4] [min] | half-life [5] [h] | T1/2 [6] |
| --- | --- | --- | --- | --- | --- | --- |
| CCCCCCCCCCCCOC[C@H]1O[C@@H](n2cc(C)c(=O)[nH]c2=O)C[C@@H]1O | 32 | 15 |  |  |  |  |
| Cc1cn([C@H]2C[C@H](OP(=S)(OC[C@H]3O[C@@H](n4cc(C)c(=O)[nH]c4=O)C[C@@H]3O)SCCSC(=O)c3ccccc3)[C@@H](CO)O2)c(=O)[nH]c1=O (some centres undefined) | 46.5 | 36 | No degradation | 5 |  |  |
| CC(=O)SCCSP(=S)(OC[C@H]1O[C@@H](n2cc(C)c(=O)[nH]c2=O)C[C@@H]1O)O[C@H]1C[C@H](n2cc(C)c(=O)[nH]c2=O)O[C@@H]1CO (some centres undefined) | 6 | < 5 |  | < 2 | 168 |  |
| Cc1cn([C@H]2C[C@H](OP(=S)(OC[C@H]3O[C@@H](n4cc(C)c(=O)[nH]c4=O)C[C@@H]3O)SCCSC(=O)C(C)(C)C)[C@@H](CO)O2)c(=O)[nH]c1=O (some centres undefined) | 42.7 | 54 |  | < 4 |  | No degradation |
